In patent US10316021B2, “Heteroarylphenoxy benzamide kappa opioid ligands” (Pfizer Inc., priority 2016, dated 2019):
Where two headings read alike, the source gives them in different places.

Assays:
[1] = target: T1, human mu opioid receptor (hMOR) (Homo sapiens, UniProt P35372); assay: Mu radioligand binding assay ([3H]diprenorphine, CHO cell membranes); details: read-out: hMOR binding assay Ki
T1 construct: expressed in transfected cells; host or cells: CHO cells
Protocol: (§1) Kappa and Mu Radioligand Binding Assay:
Binding assays on membranes from CHO cells expressing human kappa or mu opioid receptors were performed according to standard procedures. Frozen cell paste was homogenized in 50 mM Tris HCl buffer (pH 7.4 @ 4 degrees C.) containing 2.0 mM MgCl2 using a Polytron and spun in a centrifuge at 40,000 g for ten minutes. The final pellet was resuspended in assay buffer (50 mM Tris HCl buffer, pH 7.4, containing 1 mM EDTA, 5 mM MgCl2). Incubations were initiated by the addition of membranes to 96-well plates containing test drugs and [^3H]diprenorphine (0.6 nM final concentration for kappa opioid receptor and 0.5 nM final concentration for mu) in a final volume of 250 μl. Non-specific binding was determined by radioligand binding in the presence of a saturating concentration of naltrexone (10 μM). After a one hour incubation period at room temperature, assay samples were rapidly filtered through PEI coated, GF/B fired Unifilter plates (PerkinElmer) and rinsed with ice-cold 50 mM Tris buffer (pH 7.4). Membrane bound [^3H]diprenorphine levels were determined by liquid scintillation counting of the filterplates in Ecolume scintillation fluid. […] Ki values were calculated according to the Cheng Prusoff equation, Ki=IC50/(1+(L/Kd)), where L is the concentration of the radioligand used in the experiment and the Kd value is the dissociation constant for the radioligand (determined previously by saturation analysis).

[2] = target: T2, human kappa opioid receptor (hKOR) (Homo sapiens, UniProt P41145); assay: Kappa radioligand binding assay ([3H]diprenorphine, CHO cell membranes); details: for Selectivity hMOR/hKOR: selectivity ratio calculated by dividing the hMOR Ki by the hKOR Ki
T2 construct: expressed in transfected cells; host or cells: CHO cells
T2 sequence (P41145 whole entry): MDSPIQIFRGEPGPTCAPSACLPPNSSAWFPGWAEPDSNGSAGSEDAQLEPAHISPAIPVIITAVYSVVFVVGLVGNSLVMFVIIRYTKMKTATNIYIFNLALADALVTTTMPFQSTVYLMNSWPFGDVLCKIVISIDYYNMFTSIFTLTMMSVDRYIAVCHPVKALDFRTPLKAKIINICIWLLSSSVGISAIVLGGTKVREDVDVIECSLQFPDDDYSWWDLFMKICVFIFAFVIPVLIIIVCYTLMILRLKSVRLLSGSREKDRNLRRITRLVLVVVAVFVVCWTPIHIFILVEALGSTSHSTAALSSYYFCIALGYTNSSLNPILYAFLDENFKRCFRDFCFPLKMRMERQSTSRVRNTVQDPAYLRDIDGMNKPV
Protocol: as §1
Binding assays on membranes from CHO cells expressing human kappa or mu opioid receptors were performed according to standard procedures. Frozen cell paste was homogenized in 50 mM Tris HCl buffer (pH 7.4 @ 4 degrees C.) containing 2.0 mM MgCl2 using a Polytron and spun in a centrifuge at 40,000 g for ten minutes. The final pellet was resuspended in assay buffer (50 mM Tris HCl buffer, pH 7.4, containing 1 mM EDTA, 5 mM MgCl2). Incubations were initiated by the addition of membranes to 96-well plates containing test drugs and [^3H]diprenorphine (0.6 nM final concentration for kappa opioid receptor and 0.5 nM final concentration for mu) in a final volume of 250 μl. Non-specific binding was determined by radioligand binding in the presence of a saturating concentration of naltrexone (10 μM). After a one hour incubation period at room temperature, assay samples were rapidly filtered through PEI coated, GF/B fired Unifilter plates (PerkinElmer) and rinsed with ice-cold 50 mM Tris buffer (pH 7.4). Membrane bound [^3H]diprenorphine levels were determined by liquid scintillation counting of the filterplates in Ecolume scintillation fluid. The IC50 value (concentration at which 50% inhibition of specific binding occurs) was calculated using a logistic 4 parameter fit model of the concentration-response data. Ki values were calculated according to the Cheng Prusoff equation, Ki=IC50/(1+(L/Kd)), where L is the concentration of the radioligand used in the experiment and the Kd value is the dissociation constant for the radioligand (determined previously by saturation analysis).

[3] = Table 19, geometric mean of 2-6 determinations unless otherwise indicated (Example 3: >=7)
[4] = Table 19, geometric mean of 2-6 determinations unless otherwise indicated (Example 3: >=7), read-out: hKOR binding assay Ki
[5] = Table 20, radioligand binding, read-out: hKOR binding assay Ki

T1 sequence (P35372 whole entry): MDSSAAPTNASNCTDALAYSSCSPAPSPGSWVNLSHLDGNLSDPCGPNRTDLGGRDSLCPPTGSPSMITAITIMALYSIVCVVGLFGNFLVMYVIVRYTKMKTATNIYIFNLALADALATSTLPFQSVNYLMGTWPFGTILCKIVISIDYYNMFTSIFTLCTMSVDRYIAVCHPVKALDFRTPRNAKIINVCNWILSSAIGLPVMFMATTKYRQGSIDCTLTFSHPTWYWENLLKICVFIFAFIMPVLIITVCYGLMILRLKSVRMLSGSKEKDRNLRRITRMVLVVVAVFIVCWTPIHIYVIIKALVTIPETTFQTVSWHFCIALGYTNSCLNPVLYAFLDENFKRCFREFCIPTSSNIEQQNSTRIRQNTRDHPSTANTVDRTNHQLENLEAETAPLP

| Structure (SMILES) | Ki [1, 3] | Ki [2, 4] | further results |
| --- | --- | --- | --- |
| Cc1nn(C)cc1C1CCCN1Cc1ccc(Oc2ccc(C(N)=O)cc2)c(F)c1 (racemic) [Example 1, (+/−)-4-(4-{[2-(1,3-Dimethyl-1H-pyrazol-4-yl)pyrrolidin-1-yl]methyl}-2-fluorophenoxy) benzamide] | 20.2 nM | 0.871 nM | – |
| COc1nn(C)cc1C1CCCN1Cc1ccc(Oc2ccc(C(N)=O)cc2F)cc1 (racemic) [Example 7, (+/−)-3-Fluoro-4-(4-{[2-(3-methoxy-1-methyl-1H-pyrazol-4-yl)pyrrolidin-1-yl]methyl}phenoxy)benzamide] | 196 nM | 5.71 nM | – |
| Cc1nn(C)cc1C1CCCN1Cc1ccc(Oc2ccc(C(N)=O)c(O)c2)cc1 (racemic) [Example 16, (+/−)-4-(4-{[2-(1,3-Dimethyl-1H-pyrazol-4-yl)pyrrolidin-1-yl]methyl}phenoxy)-2-hydroxybenzamide] | 159 nM | 9.67 nM | – |
| Cc1c(C2CCCN2Cc2ccc(Oc3ccc(C(N)=O)cc3)cc2)cnn1C (racemic) [Example 36] | 20.9 nM | 8.53 nM | – |
| Cc1nn(C)c(C)c1C1CCCN1Cc1ccc(Oc2ccc(C(N)=O)cc2F)cc1 (racemic) [Example 37] | 12.5 nM | 13.3 nM | Ki ([1]; Table 20, radioligand binding): 12.5 nM; selectivity for KOR over MOR (hMOR Ki divided by hKOR Ki) [2]: 0.9 fold; Ki [2, 5]: 13.3 nM; Selectivity hMOR/hKOR [2]: 0.9 |
| Cc1nn(C)cc1C1CCCN1Cc1ccc(Oc2ccc(C(N)=O)cc2F)cc1 (single isomer, unassigned) [Example 5, 4-(4-{[2-(1,3-Dimethyl-1H-pyrazol-4-yl)pyrrolidin-1-yl]methyl}phenoxy)-3-fluorobenzamide] | 73.6 nM | 16.8 nM | – |
| COc1nn(C)cc1C1COCCN1Cc1ccc(Oc2ccc(C(N)=O)cc2F)cc1 (single isomer, unassigned) [Example 20, 3-fluoro-4-(4-{[3-(3-methoxy-1-methyl-1H-pyrazol-4-yl)morpholin-4-yl]methyl}phenoxy)benzamide] | 165 nM | 5.86 nM | – |
| COc1nn(C)cc1C1CCCCN1Cc1ccc(Oc2ccc(C(N)=O)cc2)cc1 (single isomer, unassigned) [Example 21, 4-(4-{[2-(3-methoxy-1-methyl-1H-pyrazol-4-yl)piperidin-1-yl]methyl}phenoxy)benzamide] | 14.6 nM | 0.567 nM | – |
| COc1nn(C)cc1C1COCCN1Cc1ccc(Oc2ccc(C(N)=O)cc2)c(F)c1 (single isomer, unassigned) [Example 22, 4-(2-fluoro-4-{[3-(3-methoxy-1-methyl-1H-pyrazol-4-yl)morpholin-4-yl]methyl}phenoxy)benzamide] | 95.1 nM | 4.52 nM | – |
| COc1nn(C)cc1C1COCCN1Cc1ccc(Oc2ccc(C(N)=O)cc2)cc1 (single isomer, unassigned) [Example 23, 4-(4-{[3-(3-methoxy-1-methyl-1H-pyrazol-4-yl)morpholin-4-yl]methyl}phenoxy)benzamide] | 73.3 nM | 3.22 nM | – |
| COc1nn(C)cc1C1CC(F)CN1Cc1ccc(Oc2ccc(C(N)=O)cc2)cc1 (single isomer, unassigned) [Example 24, 4-(4-{[4-fluoro-2-(3-methoxy-1-methyl-1H-pyrazol-4-yl)pyrrolidin-1-yl]methyl}phenoxy)benzamide] | 252 nM | 2.21 nM | – |
| Cc1nn(C)cc1C1CC(F)CN1Cc1ccc(Oc2ccc(C(N)=O)cc2)cc1 (single isomer, unassigned) [Example 25, 4-(4-{[2-(1,3-dimethyl-1H-pyrazol-4-yl)-4-fluoropyrrolidin-1-yl]methyl}phenoxy) benzamide] | 391 nM | 2.7 nM | – |
| Cc1nn(C)cc1C1CC(F)CN1Cc1ccc(Oc2ccc(C(N)=O)cc2)cc1 (single isomer, unassigned) [Example 26, 4-(4-{[2-(1,3-dimethyl-1H-pyrazol-4-yl)-4-fluoropyrrolidin-1-yl]methyl}phenoxy) benzamide] | > 526 nM | 10.5 nM | – |
| COc1nn(C)cc1C1CC(C)CN1Cc1ccc(Oc2ccc(C(N)=O)cc2F)cc1 (single isomer, unassigned) [Example 28, 3-fluoro-4-(4-{[2-(3-methoxy-1-methyl-1H-pyrazol-4-yl)-4-methylpyrrolidin-1-yl]methyl}phenoxy)benzamide] | 77.9 nM | 4.88 nM | – |
| COc1nn(C)cc1C1CC(C)CN1Cc1ccc(Oc2ccc(C(N)=O)cc2F)cc1 (single isomer, unassigned) [Example 29, 3-fluoro-4-(4-{[2-(3-methoxy-1-methyl-1H-pyrazol-4-yl)-4-methylpyrrolidin-1-yl]methyl}phenoxy)benzamide] | 10.6 nM | 0.498 nM | – |
| COc1nn(C)cc1C1CC(C)CN1Cc1ccc(Oc2ccc(C(N)=O)cc2F)cc1 (single isomer, unassigned) [Example 30, 3-fluoro-4-(4-{[2-(3-methoxy-1-methyl-1H-pyrazol-4-yl)-4-methylpyrrolidin-1-yl]methyl}phenoxy)benzamide] | 9.59 nM | 0.417 nM | – |
| COc1nn(C)cc1C1CC(C)CN1Cc1ccc(Oc2ccc(C(N)=O)cc2F)cc1 (single isomer, unassigned) [Example 31, 3-fluoro-4-(4-{[2-(3-methoxy-1-methyl-1H-pyrazol-4-yl)-4-methylpyrrolidin-1-yl]methyl}phenoxy)benzamide] | 51.7 nM | 4.99 nM | – |
| COc1nn(C)cc1C1CCCN1Cc1ccc(Oc2ccc(C(N)=O)cc2)c(F)c1 (single isomer, unassigned) [Example 32, 4-(2-fluoro-4-{[2-(3-methoxy-1-methyl-1H-pyrazol-4-yl)pyrrolidin-1-yl]methyl}phenoxy)benzamide] | 112 nM | 2.47 nM | – |
| COc1nn(C)cc1C1CCCN1Cc1ccc(Oc2ccc(C(N)=O)c(O)c2)cc1 (single isomer, unassigned) [Example 33, 2-hydroxy-4-(4-{[2-(3-methoxy-1-methyl-1H-pyrazol-4-yl)pyrrolidin-1-yl]methyl}phenoxy)benzamide] | 52.2 nM | 1.69 nM | – |
| Cc1c(C2CCCN2Cc2ccc(Oc3ccc(C(N)=O)cc3F)cc2)cnn1C (single isomer, unassigned) [Example 35, 4-(4-{[2-(1,5-dimethyl-1H-pyrazol-4-yl)pyrrolidin-1-yl]methyl}phenoxy)-3-fluorobenzamide] | 18.4 nM | 2.9 nM | Ki ([1]; Table 20, radioligand binding): 18.4 nM; selectivity for KOR over MOR (hMOR Ki divided by hKOR Ki) [2]: 2.5 fold; Ki [2, 5]: 2.9 nM; Selectivity hMOR/hKOR [2]: 6.4 |
| Cc1nn(C)nc1C1CCCN1Cc1ccc(Oc2ccc(C(N)=O)cc2)cc1 (single isomer, unassigned) [Example 38, 4-(4-{[2-(2,5-dimethyl-2H-1,2,3-triazol-4-yl)pyrrolidin-1-yl]methyl}phenoxy)benzamide] | 116 nM | 0.688 nM | Ki ([1]; Table 20, radioligand binding): 116 nM; selectivity for KOR over MOR, in words [2]: more selective than the phenyl examples, Comparators A and B; Ki [2, 5]: 0.7 nM; Selectivity hMOR/hKOR [2]: 168 |
| Cc1nn(C)nc1C1CCCN1Cc1ccc(Oc2ccc(C(N)=O)cc2)c(F)c1 (single isomer, unassigned) [Example 39, 4-(4-{[2-(2,5-dimethyl-2H-1,2,3-triazol-4-yl)pyrrolidin-1-yl]methyl}-2-fluorophenoxy)benzamide] | 40.9 nM | 0.367 nM | – |
| Cc1nsc(C2CCCN2Cc2ccc(Oc3ccc(C(N)=O)cc3)cc2)n1 (single isomer, unassigned) [Example 41, 4-(4-{[2-(3-methyl-1,2,4-thiadiazol-5-yl)pyrrolidin-1-yl]methyl}phenoxy)benzamide] | 2730 nM | 85.8 nM | Ki ([1]; Table 20, radioligand binding): 2730 nM; Ki ([2]; radioligand binding, [3H]diprenorphine, read-out: hKOR Ki): > 100 nM; Selectivity hMOR/hKOR [2]: 32 |
